Key:
[1] = test system: natural killer (NK) cell activity; test: NK cell activity of splenic lymphocytes incubated with YC-1 in vitro (51Cr release from YAC-1 cells); assay type: cell-based, nude mice; conditions: 24 hours
Experimental: The lymphocytes were then incubated at the indicated effectontarget cell (E:T) ratios with ^51Cr-labeled YAC-1 cells (1×10^4). After 4 hours, the amount of radioactivity in the culture supernatants was measured with a gamma counter. […] Splenic lymphocytes were then isolated and tested for NK cell activity. The result is expressed as the mean of four separate experiments with 95% confidence intervals.
The quality of the extracted RNAs was verified by identifying the 18S ribosomal RNA (rRNA) on a 1% denaturing agarose gel. VEGF, aldolase A and enolase 1 mRNA levels were also lower in YC-1-treated tumors than in vehicle-treated tumors one experiment. Results are expressed as the mean and 95% confidence intervals of 4 separate experiments.
Splenic lymphocytes were isolated from each mouse and tested immediately for NK cell activity. The spontaneous release of ^51Cr from YAC-1 cells was usually lower than 10% of the total ^51Cr loaded. NK cell activity was calculated as follows: {(experimental release−spontaneous release)/(total release−spontaneous release)}×100. Each assay was repeated three times and the average value is the result from one experiment. Results are expressed as the mean and 95% confidence intervals of 4 separate experiments.

[2] = test system: HIF-1-regulated genes (VEGF, aldolase A, and enolase 1); test: semi-quantitative RT-PCR of HIF-1α and HIF-1-regulated gene mRNA in Hep3B cells; assay type: cell-based, human; conditions: 16 hours
Experimental: FIG. 2 is an autoradiograph showing mRNA levels of VEGF, aldolase A, enolase 1, HIF-1α, and β-actin.
Immunoblotting was used to detect HIF-1 protein in cultured cells, as described (Chun et al., Biochem Pharmacol 2001 61:947-954). Cells were centrifuged at 3000 rpm for 5 minutes at VC and then washed twice with ice-cold phosphate buffered saline (PBS). Cells were then resuspended in ten packed cell volumes of alysis buffer consisting of 10 mM Tris, pH 7.4, 130 mM NaCl, 2 mM EDTA, 1% Nonidet P-40, 0.5 mM dithiothreitol, and 0.5 mM phenylmethylsulfonyl fluoride. […] To quantify mRNAs for HIF-1α and HIF-1-regulated genes, we performed a highly sensitive, semi-quantitative reverse transcription-polymerase chain reaction (RT PCR), as described previously (Chun et al., J Cell Sci 2001 114:4051-4061). […] P-actin mRNA was measured as a PCR control. […] To assess whether the VEGF mRNA levels affected levels of VEGF protein secreted into the medium, we measured VEGF protein levels in Hep3B cell-conditioned medium. […] VEGF levels in the conditioned media were quantified by using the Quantikine human VEGF Immunoassay kit (R&D Systems, Minneapolis, Minn.) according to the manufacturer's recommended protocol. The VEGF concentrations were quantified by comparison with a series of VEGF standard samples included in the assay kit. […]

OCc1ccc(-c2nn(Cc3ccccc3)c3ccccc23)o1 [YC-1, 3-(5′-hydroxymethyl-2′-furyl)-1-benzylindazole]
cytolytic activity against YAC-1 cells versus lymphocytes incubated without YC-1 [1]: comparable | HIF-1α mRNA level [2]: relatively unchanged | expression of HIF-1-regulated genes (VEGF, aldolase A, and enolase 1) mRNA ([2]; hypoxic): dose dependently decreased

Reference: US20050096370A1, “Method for inhibiting tumor angiogenesis and tumor growth” (Bizbiotech Co., Ltd., priority 2003, published 2005)
